The record followed here is patent US10399931B2, “Octahydroanthracene compound, preparation method and application thereof” (SHANDONG XINHUA PHARMACEUTICAL CO., LTD., priority 2016, dated 2019).

SMILES strings stand for the structures. Where two headings read alike, the source gives them in different places.

In assay [1] the test system is Human leukemia HL60 cells. Kind of assay: MTT assay, proliferation of human leukemia HL60 cells. Format: cell-based. Particulars: Homo sapiens, HL-60, 48 h, read-out: Inhibitive rate (%) against HL60 cells. The protocol: (§1) The survival rate of cells was determined by MTT assay, which is based on the metabolic reduction of 3-(4,5-dimethyl-2thiahiazoyl)-3,5-di-phenyl-tetrazolium bromide (MTT) by viable cells. MTT is a yellow compound, a dye that accepts hydrogen ion, which can act on the respiratory chain in the mitochondria of viable cells. Under the action of succinate dehydrogenase and cytochrome C, the tetrazolium ring was cleaved to form blue Formazan crystals, and the amount of Formazan crystals generated was only proportional to the number of the viable cells. The enzymes disappeared in dead cells, so Formazan crystals could not be dissolved in MTT solution containing 20% sodium dodecyl sulfate (pH 4.7).
(§2) The cells in the logarithmic growth phase were selected and adjusted to an appropriate cell density, seeded in a 96-well plate, 100 μl/well, and cultured in a 37° C., 5% CO2 incubator. The cells were allowed to adhere overnight, then the culture medium was replaced and the drug was added to cultivate for 48 h. A blank control group, a drug administration group and a positive control group were set, with four repeats in each group.
(§3) After 48 h of drug treatment, the cells were incubated with 0.25 mg/ml MTT at 37° C. for 3-4 h, and 100 μl of dimethyl sulfoxide (DMSO) was added to each well after aspirating the culture solution.

Assay [2] has as its system Human cutaneous T-cell lymphoma Hut102 cells. Kind of assay: MTT assay, proliferation of human cutaneous T-cell lymphoma Hut102 cells. Format: cell-based. The protocol:
as §1, §2, §3

The subject of a further assay is APP/PS1 transgenic mice. Kind of assay: Nesting experiment. Format: in vivo. The note with it: at 12 h. An excerpt:
Each mouse was separately housed in a cage. On the first day of the test, two pieces of cotton (5 cm×5 cm) were placed in the cage. […]

Where [3] appears, read: HuT-102, 10 μM, Mean ± SE, read-out: Inhibitive rate (%) against Hut102 cells.

Consider `CC1(C)CCC(C)(C)c2c1cc1c(c2NC(=O)c2ccc(NC(=O)N3CCC(C(=O)O)CC3)cc2)C(C)(C)CCC1(C)C` [OAB-9, N-{4-[(1,1,4,4,5,5,8,8-octamethyl-1,2,3,4,5,6,7,8-octahydro-9-anthryl)carbamoyl]phenylcarbamoyl}-4-piperidinyl Formic Acid], for which the inhibition at 10 µM was 8.03 ± 1.07% in assay [1] (10 μM, 48 h, Mean ± SE) and -0.3 ± 1.13% in assay [2] (setting [3]).
In the case of `COc1cc2c(cc1OC)C(=O)C(CC1CCN(Cc3ccccc3)CC1)C2` (centres unmarked) [donepezil, reference compound], the “Nesting ability vs model group” value with APP/PS1 transgenic mice was “significantly increased”.
Take `CC1(C)CCC(C)(C)c2c1cc1c(c2NC(=O)c2ccc(NC(=O)Nc3ccccc3N)cc2)C(C)(C)CCC1(C)C` [OAB-4, 1-(2-aminophenyl)-3-{4-[(1,1,4,4,5,5,8,8-octamethyl-1,2,3,4,5,6,7,8-octahydro-9-anthryl)carbamoyl]phenyl} urea]: the inhibition at 10 µM was 15.4 ± 1.16% in assay [1] (10 μM, 48 h, Mean ± SE) and 34 ± 0.93% in assay [2] (setting [3]).
The like results for `CC1(C)CCC(C)(C)c2c1cc1c(c2NC(=O)c2ccc(N)cc2)C(C)(C)CCC1(C)C` [OAB-1, 4[(1,1,4,4,5,5,8,8-octamethyl-1,2,3,4,5,6,7,8-octahydro-9-anthryl)carbamoyl] aniline] were, in that order, 5.95 ± 2.98% and 5.43 ± 2.54%.
The like results for `COC(=O)c1ccc(C(=O)Nc2c3c(cc4c2C(C)(C)CCC4(C)C)C(C)(C)CCC3(C)C)cc1` [OAA-1, 4-[(1,1,4,4,5,5,8,8-octamethyl-1,2,3,4,5,6,7,8-octahydro-9-anthryl)carbamoyl] methyl Benzoate] were, in that order, 8.27 ± 1.57% and 7.11 ± 1.06%.
`CC1(C)CCC(C)(C)c2c1cc1c(c2NC(=O)c2ccc(C(=O)O)cc2)C(C)(C)CCC1(C)C` [OAA-2, 4-[(1,1,4,4,5,5,8,8-octamethyl-1,2,3,4,5,6,7,8-octahydro-9-anthryl)carbamoyl] benzoic Acid]: the inhibition at 10 µM in assay [1] (10 μM, 48 h, Mean ± SE) is 3.06 ± 2.23%; in assay [2] (setting [3]), -3.63 ± 1.07%.
Take `CC1(C)CCC(C)(C)c2c1cc1c(c2NC(=O)c2ccc(C(=O)Nc3ccccc3O)cc2)C(C)(C)CCC1(C)C` [OAA-12, N-(2-hydroxyphenyl)-4[(1,1,4,4,5,5,8,8-octamethyl-1,2,3,4,5,6,7,8-octahydro-9-anthryl)carbamoyl] benzamide]: the inhibition at 10 µM in assay [2] (setting [3]) amounted to 25.1 ± 0.65%.
For the compound `CC1(C)CCC(C)(C)c2c1cc1c(c2NC(=O)c2ccc(NC(=O)ON)cc2)C(C)(C)CCC1(C)C` [OAB-16, 4-[(1,1,4,4,5,5,8,8-octamethyl-1,2,3,4,5,6,7,8-octahydro-9-anthryl)carbamoyl] phenyl Carbamic Acid-O-Amino Ester], the inhibition at 10 µM in assay [1] (10 μM, 48 h, Mean ± SE) was 1.67 ± 3.24%; in assay [2] (setting [3]), 8.38 ± 2.31%.
For `CCOC(=O)Nc1ccc(C(=O)Nc2c3c(cc4c2C(C)(C)CCC4(C)C)C(C)(C)CCC3(C)C)cc1` [OAB-2, 4-[(1,1,4,4,5,5,8,8-octamethyl-1,2,3,4,5,6,7,8-octahydro-9-anthryl)carbamoyl] ethyl phenylcarbamate], the inhibition at 10 µM in assay [1] worked out at 4.51 ± 1.8%; in assay [2] (HuT-102, read-out: Inhibitive rate (%) against Hut102 cells), 6.58 ± 1.51%.
With `CC1(C)CCC(C)(C)c2c1cc1c(c2NC(=O)c2ccc(NC(=O)N3CCOCC3)cc2)C(C)(C)CCC1(C)C` [OAB-3, 4-[(1,1,4,4,5,5,8,8-octamethyl-1,2,3,4,5,6,7,8-octahydro-9-anthryl)carbamoyl] phenylcarbamoyl-1-morpholine], the inhibition at 10 µM in assay [1] (10 μM, 48 h, Mean ± SE) is 1.71 ± 5.44%; in assay [2] (setting [3]) it was -0.89 ± 3.47%.
The like results for `COC(=O)Nc1ccc(C(=O)Nc2c3c(cc4c2C(C)(C)CCC4(C)C)C(C)(C)CCC3(C)C)cc1` [OAB-8, 4-[(1,1,4,4,5,5,8,8-octamethyl-1,2,3,4,5,6,7,8-octahydro-9-anthryl)carbamoyl] methyl Phenylcarbamate] were, in that order, 7.24 ± 4.74% and -1.05 ± 3.08%.
The like results for `CN(C)CCNC(=O)c1ccc(C(=O)Nc2c3c(cc4c2C(C)(C)CCC4(C)C)C(C)(C)CCC3(C)C)cc1` [OAA-7, N-[2-(N,N-dimethylamino)]ethyl-4-[(1,1,4,4,5,5,8,8-octamethyl-1,2,3,4,5,6,7,8-octahydro-9-anthryl)carbamoyl] benzamide] were, in that order, 10.8 ± 0.69% and 8.34 ± 4.37%.
The like results for `CC1(C)CCC(C)(C)c2c1cc1c(c2NC(=O)c2ccc(C(=O)NO)cc2)C(C)(C)CCC1(C)C` [OAA3, N-hydroxy-4-[(1,1,4,4,5,5,8,8-octamethyl-1,2,3,4,5,6,7,8-octahydro-9-anthryl)carbamoyl] benzamide] were, in that order, 4.79 ± 6.65% and 11.3 ± 0.46%.
Turning to `CCN(CC)CCNC(=O)c1ccc(C(=O)Nc2c3c(cc4c2C(C)(C)CCC4(C)C)C(C)(C)CCC3(C)C)cc1` [OAA-5, N-[2-(N,N-diethylamino)]ethyl-4-[(1,1,4,4,5,5,8,8-octamethyl-1,2,3,4,5,6,7,8-octahydro-9-anthryl)carbamoyl] benzamide], the inhibition at 10 µM in assay [1] (10 μM, 48 h, Mean ± SE) is 16.6 ± 1.43%; in assay [2] (setting [3]), 27.7 ± 2.38%.
The like results for `CC1(C)CCC(C)(C)c2c1cc1c(c2NC(=O)c2ccc(N(S(C)(=O)=O)S(C)(=O)=O)cc2)C(C)(C)CCC1(C)C` [OAB-5, N,N-dimethylsulfonyl-4-[(1,1,4,4,5,5,8,8-octamethyl-1,2,3,4,5,6,7,8-octahydro-9-anthryl)carbamoyl] aniline] were, in that order, 42.3 ± 1.05% and 29.1 ± 1.39%.
The like results for `CC1(C)CCC(C)(C)c2c1cc1c(c2NC(=O)c2ccc(NC(=O)NCCCC(=O)O)cc2)C(C)(C)CCC1(C)C` [OAB-7, 1-(4-carboxypropyl)-3-{4-[(1,1,4,4,5,5,8,8-octamethyl-1,2,3,4,5,6,7,8-octahydro-9-anthryl)carbamoyl]phenyl} urea] were, in that order, 1.76 ± 1.41% and 5.6 ± 3%.
As for `CC1(C)CCC(C)(C)c2c1cc1c(c2NC(=O)c2ccc(NC(=O)NO)cc2)C(C)(C)CCC1(C)C` [OAB-15, 1-hydroxy-3-{4-[(1,1,4,4,5,5,8,8-octamethyl-1,2,3,4,5,6,7,8-octahydro-9-anthryl)carbamoyl]phenyl} urea], the inhibition at 10 µM is 0.59 ± 1.44% in assay [1] (10 μM, 48 h, Mean ± SE) and 2.3 ± 3.26% in assay [2] (setting [3]).
The like results for `CC1(C)CCC(C)(C)c2c1cc1c(c2NC(=O)c2ccc(C(=O)Nc3ccccc3N)cc2)C(C)(C)CCC1(C)C` [OAA-4, N-(2-aminophenyl)-4-[(1,1,4,4,5,5,8,8-octamethyl-1,2,3,4,5,6,7,8-octahydro-9-anthryl)carbamoyl] benzamide] were, in that order, 12.5 ± 1.32% and 30.3 ± 0.7%.
On to `CC1(C)CCC(C)(C)c2c1cc1c(c2NC(=O)c2ccc(NC(=O)NCCCO)cc2)C(C)(C)CCC1(C)C` [OAB-18, 1-(3-hydroxy) propyl-3-{4-[(1,1,4,4,5,5,8,8-octamethyl-1,2,3,4,5,6,7,8-octahydro-9-anthryl)carbamoyl]phenyl} urea], for which the inhibition at 10 µM in assay [1] (10 μM, 48 h, Mean ± SE) was 2.47 ± 2.64%; in assay [2] (setting [3]), 4.32 ± 1.29%.
The like results for `CC1(C)CCC(C)(C)c2c1cc1c(c2NC(=O)c2ccc(NC(=O)Nc3ccccc3O)cc2)C(C)(C)CCC1(C)C` [OAB-10, 1-(2-hydroxyphenyl)-3-{4-[(1,1,4,4,5,5,8,8-octamethyl-1,2,3,4,5,6,7,8-octahydro-9-anthryl)carbamoyl]phenyl} urea] were, in that order, 7.21 ± 0.96% and 17.1 ± 0.93%.
